Test results taken from ChEMBL document CHEMBL5252562, “Synthesis, evaluation of anti-breast cancer activity in vitro of ICS II derivatives and summary of the structure-activity relationship” (Bioorg Med Chem, 2023).

Columns and labels:
MCF7 [1] = test: Antitumor activity against human MCF7 cells assessed as cell viability incubated for 48 hrs by CCK8 assay; assay type: functional, cell-based; conditions: MCF7, 48 h
MCF7 [2] = test: Antitumor activity against human MCF7 cells assessed as cell viability at 20 uM incubated for 48 hrs by CCK8 assay; assay type: functional; conditions: read-out: Activity
[3] = Cytotoxicity against African green monkey Vero cells; assay type: toxicity, cell-based; conditions: African green monkey (Chlorocebus sabaeus)
[4] = Selectivity index, ratio of IC50 for cytotoxicity against African green monkey Vero cells to IC50 for antitumor activity against human MCF7 cells; assay type: toxicity, cell-based; conditions: Vero cells and MCF7 cells, read-out: Ratio IC50
MCF7 [5] = test: Potency index, ratio of Icariside-II IC50 to test compound IC50 for antitumor activity against human MCF7 cells; assay type: functional

Structure (SMILES)	IC50 (MCF7 [1])	viability at 20 µM (MCF7 [2])	IC50 [3]	selectivity ratio [4]	Ratio IC50 (MCF7 [5])
COc1ccc(-c2oc3c(CC=C(C)C)c(O)c(CN4CCCCC4)c(O)c3c(=O)c2O[C@@H]2O[C@@H](C)[C@H](O)[C@@H](O)[C@H]2O)cc1	> 20 µM				
C#CCOc1cc(OCC#C)c2c(=O)c(O[C@@H]3O[C@@H](C)[C@H](O)[C@@H](O)[C@H]3O)c(-c3ccc(OC)cc3)oc2c1CC=C(C)C	6.24 µM	< 50%			
COc1ccc(-c2oc3c(CC=C(C)C)c(OCCO)cc(O)c3c(=O)c2O[C@@H]2O[C@@H](C)[C@H](O)[C@@H](O)[C@H]2O)cc1	10.2 µM	< 50%			
COc1ccc(-c2oc3c(CC=C(C)C)c(O)c(CN4CCC(C)CC4)c(O)c3c(=O)c2O[C@@H]2O[C@@H](C)[C@H](O)[C@@H](O)[C@H]2O)cc1	17.4 µM				
C=C(C)COc1c(CN2CCC(C)CC2)c(O)c2c(=O)c(O[C@@H]3O[C@@H](C)[C@H](O)[C@@H](O)[C@H]3O)c(-c3ccc(OC)cc3)oc2c1CC=C(C)C	> 20 µM				
CCN(CC)Cc1c(O)c(CC=C(C)C)c2oc(-c3ccc(OC)cc3)c(O[C@@H]3O[C@@H](C)[C@H](O)[C@@H](O)[C@H]3O)c(=O)c2c1O	> 20 µM				
COc1ccc(-c2oc3c(CC=C(C)C)c(O)c(CN4CCCC4)c(O)c3c(=O)c2O[C@@H]2O[C@@H](C)[C@H](O)[C@@H](O)[C@H]2O)cc1	> 20 µM				
COc1ccc(-c2oc3c(CC=C(C)C)c(OC(=O)N(C)C)cc(O)c3c(=O)c2O[C@@H]2O[C@@H](C)[C@H](O)[C@@H](O)[C@H]2O)cc1	> 20 µM				
COc1ccc(-c2oc3c(CC=C(C)C)c(OCC4OCCO4)cc(O)c3c(=O)c2O[C@@H]2O[C@@H](C)[C@H](O)[C@@H](O)[C@H]2O)cc1	6.28 µM	< 50%			
COc1ccc(-c2oc3c(CC=C(C)C)c(OCc4ccc([N+](=O)[O-])cc4)cc(O)c3c(=O)c2O[C@@H]2O[C@@H](C)[C@H](O)[C@@H](O)[C@H]2O)cc1	> 20 µM				
COc1ccc(-c2oc3c(CC=C(C)C)c(OCCCBr)cc(O)c3c(=O)c2O[C@@H]2O[C@@H](C)[C@H](O)[C@@H](O)[C@H]2O)cc1	13.4 µM	< 50%			
CC(=O)O[C@H]1C(=O)[C@@]2(C)[C@H]([C@H](OC(=O)c3ccccc3)[C@]3(O)C[C@H](OC(=O)[C@H](O)[C@@H](NC(=O)c4ccccc4)c4ccccc4)C(C)=C1C3(C)C)[C@]1(OC(C)=O)CO[C@@H]1C[C@@H]2O [PACLITAXEL]	0.48 µM				
CCOc1cc(O)c2c(=O)c(O[C@@H]3O[C@@H](C)[C@H](O)[C@@H](O)[C@H]3O)c(-c3ccc(OC)cc3)oc2c1CC=C(C)C	8.25 µM	< 50%			
COc1ccc(-c2oc3c(CC=C(C)C)c(O)c(CN4CCN(C)CC4)c(O)c3c(=O)c2O[C@@H]2O[C@@H](C)[C@H](O)[C@@H](O)[C@H]2O)cc1	> 20 µM				
COc1ccc(-c2oc3c(CC=C(C)C)c(OCCCCCCCCCO)cc(O)c3c(=O)c2O[C@@H]2O[C@@H](C)[C@H](O)[C@@H](O)[C@H]2O)cc1	10.2 µM	< 50%			
COc1ccc(-c2oc3c(CC=C(C)C)c(O)c(CN4CCNCC4)c(O)c3c(=O)c2O[C@@H]2O[C@@H](C)[C@H](O)[C@@H](O)[C@H]2O)cc1	> 20 µM				
COc1ccc(-c2oc3c(CC=C(C)C)c(O)c(CN(C(C)C)C(C)C)c(O)c3c(=O)c2O[C@@H]2O[C@@H](C)[C@H](O)[C@@H](O)[C@H]2O)cc1	> 20 µM				
COc1ccc(-c2oc3c(CC=C(C)C)c(OCCCN4CCNCC4)cc(O)c3c(=O)c2O[C@@H]2O[C@@H](C)[C@H](O)[C@@H](O)[C@H]2O)cc1	4.07 µM	< 50%	> 20 µM	> 5	
COc1ccc(-c2oc3c(CC=C(C)C)c(O)cc(O)c3c(=O)c2O[C@@H]2O[C@@H](C)[C@H](O)[C@@H](O)[C@H]2O)cc1	7.52 µM		9.34 µM	1.24	

The remaining compounds from weak to strong by IC50 (MCF7 [1]), led by results:

IC50 (MCF7 [1])	Structure (SMILES)	viability at 20 µM (MCF7 [2])	IC50 [3]	selectivity ratio [4]	Ratio IC50 (MCF7 [5])
3.97 µM	C=C(C)COc1cc(O)c2c(=O)c(O[C@@H]3O[C@@H](C)[C@H](O)[C@@H](O)[C@H]3O)c(-c3ccc(OC)cc3)oc2c1CC=C(C)C	< 50%	8.18 µM	2.06	
3.79 µM	COc1ccc(-c2oc3c(CC=C(C)C)c(OCCCN4CCCCC4)cc(O)c3c(=O)c2O[C@@H]2O[C@@H](C)[C@H](O)[C@@H](O)[C@H]2O)cc1	< 50%	15.5 µM	4.08	
3.26 µM	CCN(CC)CCCOc1cc(O)c2c(=O)c(O[C@@H]3O[C@@H](C)[C@H](O)[C@@H](O)[C@H]3O)c(-c3ccc(OC)cc3)oc2c1CC=C(C)C	< 50%	6.19 µM	1.89	
3.17 µM	COc1ccc(-c2oc3c(CC=C(C)C)c(OCCCN4CCC(C)CC4)cc(O)c3c(=O)c2O[C@@H]2O[C@@H](C)[C@H](O)[C@@H](O)[C@H]2O)cc1	< 50%	10.3 µM	3.24	
3.09 µM	COc1ccc(-c2oc3c(CC=C(C)C)c(OCCCN4CCCC4)cc(O)c3c(=O)c2O[C@@H]2O[C@@H](C)[C@H](O)[C@@H](O)[C@H]2O)cc1	< 50%	6.15 µM	1.99	
2.89 µM	C=CCOc1cc(O)c2c(=O)c(O[C@@H]3O[C@@H](C)[C@H](O)[C@@H](O)[C@H]3O)c(-c3ccc(OC)cc3)oc2c1CC=C(C)C	< 50%	5.88 µM	2.03	
2.79 µM	C#CCOc1cc(O)c2c(=O)c(O[C@@H]3O[C@@H](C)[C@H](O)[C@@H](O)[C@H]3O)c(-c3ccc(OC)cc3)oc2c1CC=C(C)C	< 50%	6.43 µM	2.3	
2.17 µM	COc1ccc(-c2oc3c(CC=C(C)C)c(OCC=C(C)C)cc(O)c3c(=O)c2O[C@@H]2O[C@@H](C)[C@H](O)[C@@H](O)[C@H]2O)cc1	< 50%	6.74 µM	2.85	
1.54 µM	COc1ccc(-c2oc3c(CC=C(C)C)c(OC(C)=O)cc(O)c3c(=O)c2O[C@@H]2O[C@@H](C)[C@H](OC(C)=O)[C@@H](OC(C)=O)[C@H]2OC(C)=O)cc1	< 50%	3.88 µM	2.51	
0.7 µM	COc1ccc(-c2oc3c(CC=C(C)C)c(OC(C)=O)cc(OC(C)=O)c3c(=O)c2O[C@@H]2O[C@@H](C)[C@H](OC(C)=O)[C@@H](OC(C)=O)[C@H]2OC(C)=O)cc1	< 50%	3.13 µM	4.47	5
